Test results: ChEMBL document CHEMBL1201862, “PubChem BioAssay data set” (2004)
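How tested: cells in 96-well plates exposed to compound for 48 hours at five concentrations. The concentration for 50% growth inhibition is given as GI50.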 The source made the active and inactive calls. Rule as the data show it: active = GI50 up to about 1.1 µM and inactive = higher.

Experiments:
Assay in all cases: DTP human tumour cell line panel, 48 h
SK-MEL-28 = system: SK-MEL-28
M14 = system: M14
EKVX = system: EKVX
786-0 = system: 786-0
HCT-116 = system: HCT-116
ACHN = system: ACHN
SK-OV-3 = system: SK-OV-3
SR = system: SR
A549 = system: A549
SF-268 = system: SF-268
CAKI-1 = system: CAKI-1
HL-60 = system: HL-60
UACC-62 = system: UACC-62
HCT-15 = system: HCT-15
HT-29 = system: HT-29
UO-31 = system: UO-31
OVCAR-3 = system: OVCAR-3
U-251 = system: U-251
SK-MEL-2 = system: SK-MEL-2
SF-295 = system: SF-295
RXF 393 = system: RXF 393
A498 = system: A498
T47D = system: T47D
HCC 2998 = system: HCC 2998
TK-10 = system: TK-10
K562 = system: K562
COLO 205 = system: COLO 205
OVCAR-5 = system: OVCAR-5
SN12C = system: SN12C
PC-3 = system: PC-3
KM12 = system: KM12
MDA-N = system: MDA-N
MCF7 = system: MCF7
OVCAR-4 = system: OVCAR-4
UACC-257 = system: UACC-257
OVCAR-8 = system: OVCAR-8
NCI/ADR-RES = system: NCI/ADR-RES
HOP-62 = system: HOP-62
NCI-H460 = system: NCI-H460
MDA-MB-435 = system: MDA-MB-435
HOP-92 = system: HOP-92
NCI-H522 = system: NCI-H522
SW-620 = system: SW-620
NCI-H23 = system: NCI-H23
SNB-19 = system: SNB-19
DU-145 = system: DU-145
SF-539 = system: SF-539
MDA-MB-231 = system: MDA-MB-231
SK-MEL-5 = system: SK-MEL-5
Hs-578T = system: Hs-578T
IGROV-1 = system: IGROV-1
RPMI-8226 = system: RPMI-8226
NCI-H226 = system: NCI-H226
CCRF-CEM = system: CCRF-CEM
SNB-75 = system: SNB-75
LOX IMVI = system: LOX IMVI
Malme-3M = system: Malme-3M
MOLT-4 = system: MOLT-4

Measured: GI50

CCn1c2ccccc2c2cc(Nc3cc(C)[nH]c(=O)n3)ccc21
inactive: SK-MEL-28 > 100 µM | M14 > 100 µM | EKVX > 100 µM | 786-0 > 100 µM | HCT-116 > 100 µM | ACHN > 100 µM | SK-OV-3 > 100 µM | A549 > 100 µM | SF-268 > 100 µM | CAKI-1 > 100 µM | HT-29 > 100 µM | UO-31 > 100 µM | OVCAR-3 > 100 µM | U-251 > 100 µM | SK-MEL-2 > 100 µM | SF-295 4.53 µM | RXF 393 > 100 µM | A498 > 100 µM | T47D > 100 µM | HCC 2998 > 100 µM | TK-10 > 100 µM | COLO 205 > 100 µM | OVCAR-5 > 100 µM | SN12C > 100 µM | PC-3 > 100 µM | KM12 5.7 µM | MCF7 > 100 µM | OVCAR-4 > 100 µM | UACC-257 > 100 µM | OVCAR-8 > 100 µM | NCI/ADR-RES > 100 µM | HOP-62 > 100 µM | NCI-H460 > 100 µM | HOP-92 > 100 µM | SW-620 > 100 µM | NCI-H23 > 100 µM | SNB-19 > 100 µM | DU-145 > 100 µM | SF-539 > 100 µM | MDA-MB-231 > 100 µM
active: SR 0.0199 µM | HL-60 0.255 µM | UACC-62 0.349 µM | K562 0.47 µM | MDA-N 0.394 µM | MDA-MB-435 0.33 µM | NCI-H522 0.916 µM
> 100 µM: HCT-15

CC(NCc1c(O)ccc2ccc(=O)oc12)C(=O)O (stereo not given)
inactive: SK-MEL-28 > 100 µM | M14 > 100 µM | EKVX > 100 µM | SK-MEL-5 > 100 µM | Hs-578T > 100 µM | 786-0 > 100 µM | IGROV-1 > 100 µM | RPMI-8226 > 100 µM | HCT-116 > 100 µM | ACHN > 100 µM | SK-OV-3 > 100 µM | SR > 100 µM | A549 > 100 µM | SF-268 > 100 µM | CAKI-1 > 100 µM | HL-60 > 100 µM | UACC-62 > 100 µM | HT-29 > 100 µM | UO-31 > 100 µM | OVCAR-3 > 100 µM | U-251 > 100 µM | NCI-H226 > 100 µM | SK-MEL-2 > 100 µM | SF-295 > 100 µM | CCRF-CEM > 100 µM | RXF 393 > 100 µM | SNB-75 > 100 µM | T47D > 100 µM | LOX IMVI > 100 µM | HCC 2998 > 100 µM | TK-10 > 100 µM | Malme-3M > 100 µM | K562 > 100 µM | COLO 205 > 100 µM | OVCAR-5 > 100 µM | SN12C > 100 µM | PC-3 > 100 µM | KM12 > 100 µM | MDA-N > 100 µM | MOLT-4 > 100 µM | MCF7 > 100 µM | OVCAR-4 > 100 µM | UACC-257 > 100 µM | OVCAR-8 > 100 µM | NCI/ADR-RES > 100 µM | HOP-62 > 100 µM | NCI-H460 > 100 µM | MDA-MB-435 > 100 µM | HOP-92 > 100 µM | NCI-H522 > 100 µM | SW-620 > 100 µM | NCI-H23 > 100 µM | SNB-19 > 100 µM | DU-145 > 100 µM | SF-539 > 100 µM | MDA-MB-231 > 100 µM
> 100 µM: HCT-15
